Data as given in patent publication US7105558B2, “Gastrin and cholecystokinin receptor lignads (iv)” (The James Black Foundation Limited, priority 2000, dated 2006).

Each compound was assayed against T1, gastrin (CCK2) receptors (Rattus norvegicus, UniProt P30553) (assay: immature rat stomach assay for gastrin (CCK2) antagonist activity (pentagastrin-stimulated acid secretion)). Settings: isolated immature rat stomach, antagonism of pentagastrin dose-response curves, 60 min incubation; tested as N-methyl D-glucamine salts.
T1 construct: The stomach was excised and flushed with ca. 1 ml of unbuffered physiological saline solution; from tissue; host or cells: isolated whole stomach of immature rats (33-50 g, ca. 21 days old)
T1 sequence (P30553 1-452): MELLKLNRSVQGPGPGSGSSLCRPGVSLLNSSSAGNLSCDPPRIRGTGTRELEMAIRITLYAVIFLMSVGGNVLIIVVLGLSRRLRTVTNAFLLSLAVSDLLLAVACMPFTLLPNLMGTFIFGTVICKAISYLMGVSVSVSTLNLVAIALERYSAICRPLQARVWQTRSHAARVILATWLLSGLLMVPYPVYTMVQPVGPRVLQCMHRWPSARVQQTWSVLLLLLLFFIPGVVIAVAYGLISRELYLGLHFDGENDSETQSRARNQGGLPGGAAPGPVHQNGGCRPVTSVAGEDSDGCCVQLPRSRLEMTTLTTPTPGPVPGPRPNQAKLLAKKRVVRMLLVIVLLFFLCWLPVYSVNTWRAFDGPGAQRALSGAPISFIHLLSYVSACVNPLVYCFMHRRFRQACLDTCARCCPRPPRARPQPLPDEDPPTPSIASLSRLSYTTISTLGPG
Experimental: The compounds of the examples were tested for gastrin (CCK2) antagonist activity in an immature rat stomach assay. The procedure was as follows:
The oesophagus of immature rats (33-50 g, ca. 21 days old) was ligated at the level of the cardiac sphincter and the duodenal sphincter was cannulated. The stomach was excised and flushed with ca. 1 ml of unbuffered physiological saline solution. The fundus was punctured and cannulated. A further 4-5 ml of unbuffered solution was flushed through the stomach to ensure the preparation was not leaking. The stomach was lowered into a jacketed organ bath containing 40 ml of buffered solution containing 3×10^−8 M 5-methylfurmethide, maintained at 37° and gassed vigorously with 95% O2/5% CO2. The stomach was continuously perfused at a rate of 1 ml min^−1 with unbuffered solution gassed with 100% O2 with the perfusate passing over an internally referenced pH-electrode fixed 12 cm above the stomach.
After 120 min of stabilisation the drugs were added directly to the serosal solution in the organ bath and after a further 60 min cumulative pentagastrin dose-response curves were started. Changes in acid secretion were monitored and the curves analysed according to Black et al, Br. J. Pharmacol., 1985, 86, 581.

Row | Compound | Rat stomach pKB
1 | Nc1ccccc1-n1nc(COC23CC4CC(CC(C4)C2)C3)c(C(=O)Nc2cccc(C(=O)O)c2)n1 [Example 27] | 6.67 ± 0.17
2 | O=C(O)c1cccc(NC(=O)c2nn[nH]c2COC23CC4CC(CC(C4)C2)C3)c1 [Example 24, 3-[[5-(Adamantan-1-yloxymethyl)-1/2/3H-[1,2,3]triazole-4-carbonyl]-amino]-benzoic acid] | 5.65 ± 0.33
3 | O=C(O)c1cccc(NC(=O)c2nn(C3C4CC5CC(C4)CC3C5)nc2COC23CC4CC(CC(C4)C2)C3)c1 (stereo not shown) [Example 16, 3-[[2-Adamantan-2-yl-5-(Adamantan-1-yloxymethyl)-2H-[1,2,3]triazole-4-carbonyl]-amino]-benzoic acid.] | 6.82 ± 0.17

Same assay, conditions: isolated immature rat stomach, antagonism of pentagastrin dose-response curves, 60 min incubation; tested as N-methyl D-glucamine salts; read-out: Rat stomach pKB (converted)

Row | Kb [µM] | Compound
4 | 0.24 | O=C(O)c1cccc(NC(=O)c2nn(-c3ccccc3-c3ccccc3)nc2COC23CC4CC(CC(C4)C2)C3)c1 [Example 21, 3-[[5-(Adamantan-1-yloxymethyl)-2-(biphenyl-2-yl)-2H-[1,2,3]triazole-4-carbonyl]-amino]-benzoic acid]
5 | 2.82 | O=C(O)Cc1cccc(NC(=O)c2nn(-c3c(Cl)cccc3Cl)nc2COC23CC4CC(CC(C4)C2)C3)c1 [Example 31, (3-{[5-(Adamantan-1-yloxymethyl)-2-(2,6-dichloro-phenyl)-2H-[1,2,3]triazole-4-carbonyl]-amino}-phenyl)acetic acid]
6 | 0.275 | O=C(O)c1cccc(NC(=O)c2nn(-c3c(Cl)cccc3Cl)nc2COC2CCCCC2)c1 [Example 30, 3-{[5-Cyclohexyloxymethyl-2-(2,6-dichloro-phenyl)-2H-[1,2,3]triazole-4-carbonyl]-amino}-benzoic acid]
7 | 2.09 | O=C(O)c1cccc(NC(=O)c2nn(-c3ccccc3)nc2COC23CC4CC(CC(C4)C2)C3)c1 [Example 20, 3-[[5-(Adamantan-1-yloxymethyl)-2-phenyl-2H-[1,2,3]triazole-4-carbonyl]-amino]-benzoic acid]
8 | 0.0977 | O=C(O)c1cccc(NC(=O)c2nn(-c3c(Cl)cccc3Cl)nc2COC2CCCCCC2)c1 [Example 29, 3-{[5-Cycloheptyloxymethyl-2-(2,6-dichloro-phenyl)-2H-[1,2,3]triazole-4-carbonyl]-amino}-benzoic acid]
9 | 0.0741 | Cc1cccc(-n2nc(COC34CC5CC(CC(C5)C3)C4)c(C(=O)Nc3cccc(C(=O)O)c3)n2)c1C [Example 19, 3-[[5-(Adamantan-1-yloxymethyl)-2-(2,3-dimethyl-phenyl)-2H-[1,2,3]triazole-4-carbonyl]-amino]-benzoic acid]
10 | 0.151 | O=C(O)c1cccc(NC(=O)c2nn(-c3cc(Cl)ccc3Cl)nc2COC23CC4CC(CC(C4)C2)C3)c1 [Example 23, 3-[[5-(Adamantan-1-yloxymethyl)-2-(2,5-dichloro-phenyl)-2H-[1,2,3]triazole-4-carbonyl]-amino]-benzoic acid]
11 | 1.51 | O=C(O)c1cccc(NC(=O)c2nn(-c3cccc4ccccc34)nc2COC23CC4CC(CC(C4)C2)C3)c1 [Example 18, 3-[[5-(Adamantan-1-yloxymethyl)-2-naphthalen-1-yl-2H-[1,2,3]triazole-4-carbonyl]-amino]-benzoic acid]
12 | 0.38 | O=C(O)c1cccc(NC(=O)c2nn(-c3ccccc3[N+](=O)[O-])nc2COC23CC4CC(CC(C4)C2)C3)c1 [Example 26, 3-[[5-(Adamantan-1-yloxymethyl)-2-(2-nitro-phenyl)-2H-[1,2,3]triazole-4-carbonyl]-amino]-benzoic acid]
13 | 3.72 | O=C(O)c1cccc(NC(=O)c2c(COC34CC5CC(CC(C5)C3)C4)nnn2C2CCCCCC2)c1 [Example 32, 3-{[5-(Adamantan-1-yloxymethyl)-3-cycloheptyl-3H-[1,2,3]triazole-4-carbonyl]-amino}-benzoic acid]
14 | 0.282 | Cc1ccc(C)c(-n2nc(COC34CC5CC(CC(C5)C3)C4)c(C(=O)Nc3cccc(C(=O)O)c3)n2)c1 [Example 22, 3-[[5-(Adamantan-1-yloxymethyl)-2-(2,5-dimethyl-phenyl)-2H-[1,2,3]triazole-4-carbonyl]-amino]-benzoic acid]
15 | 0.316 | Cc1ccc(-n2nc(COC34CC5CC(CC(C5)C3)C4)c(C(=O)Nc3cccc(C(=O)O)c3)n2)c(C)c1 [Example 25, 3-[[5-(Adamantan-1-yloxymethyl)-2-(2,4-dimethyl-phenyl)-2H-[1,2,3]triazole-4-carbonyl]-amino]-benzoic acid]

Continued, compound first:

Row | Compound | Kb [µM]
16 | O=C(O)c1cccc(NC(=O)c2nn(-c3ccccc3F)nc2COC23CC4CC(CC(C4)C2)C3)c1 [Example 12, 3-[[5-(Adamantan-1-yloxymethyl)-2-(2-fluoro-phenyl)-2H-[1,2,3]triazole-4-carbonyl]-amino]-benzoic acid] | 0.174
17 | CC(C)(C)n1nc(COC23CC4CC(CC(C4)C2)C3)c(C(=O)Nc2cccc(C(=O)O)c2)n1 [Example 9, 3-[[5-(Adamantan-1-yloxymethyl)-2-tert-butyl-2H-[1,2,3]triazole-4-carbonyl]-amino]-benzoic acid] | 0.631
18 | O=C(O)c1cccc(NC(=O)c2nnn(-c3ccccc3Br)c2COC23CC4CC(CC(C4)C2)C3)c1 [Example 14, 3-[[5-(Adamantan-1-yloxymethyl)-1-(2-bromo-phenyl)-1H-[1,2,3]triazole-4-carbonyl]-amino]-benzoic acid] | 0.229
19 | O=C(O)c1cccc(NC(=O)c2nn(-c3c(Cl)cccc3Cl)nc2COC23CC4CC(CC(C4)C2)C3)c1 [Example 3, 3-[[5-(Adamantan-1-yloxymethyl)-2-(2,6-dichlorophenyl)-2H-[1,2,3]triazole-4-carbonyl]-amino]-benzoic acid] | 0.0132
20 | O=C(O)c1cccc(NC(=O)c2nn(C3CCCCC3)nc2COC23CC4CC(CC(C4)C2)C3)c1 [Example 2, 3-[[5-(Adamantan-1-yloxymethyl)-2-cyclohexyl-2H-[1,2,3]triazole-4-carbonyl]-amino]-benzoic acid] | 0.0479
21 | COc1ccccc1-n1nc(COC23CC4CC(CC(C4)C2)C3)c(C(=O)Nc2cccc(C(=O)O)c2)n1 [Example 10, 3-[[5-(Adamantan-1-yloxymethyl)-2-(2-methoxy-phenyl)-2H-[1,2,3]triazole-4-carbonyl]amino]-benzoic acid] | 0.0417
22 | O=C(O)c1cccc(NC(=O)c2nn(-c3ccccc3C(F)(F)F)nc2COC23CC4CC(CC(C4)C2)C3)c1 [Example 7, 3-[[5-(Adamantan-1-yloxymethyl)-2-(2-trifluoromethyl-phenyl)-2H-[1,2,3]triazole-4-carbonyl]-amino]-benzoic acid] | 0.0676
23 | O=C(O)c1cccc(NC(=O)c2nn(-c3ccccc3Cl)nc2COC23CC4CC(CC(C4)C2)C3)c1 [Example 5, 3-[[5-(Adamantan-1-yloxymethyl)-2-(2-chloro-phenyl)-2H-[1,2,3]triazole-4-carbonyl]-amino]-benzoic acid] | 0.0309
24 | O=C(O)c1cccc(NC(=O)c2nn(-c3ccccc3Br)nc2COC23CC4CC(CC(C4)C2)C3)c1 [Example 13, 3-[[5-(Adamantan-1-yloxymethyl)-2-(2-bromo-phenyl)-2H-[1,2,3]triazole-4-carbonyl]-amino]-benzoic acid] | 0.0955
25 | Cc1ccccc1-n1nc(COC23CC4CC(CC(C4)C2)C3)c(C(=O)Nc2cccc(C(=O)O)c2)n1 [Example 1, 3-[[5-(Adamantan-1-yloxymethyl)-2-(2-methyl-phenyl)-2H-[1,2,3]triazole-4-carbonyl]-amino]-benzoic acid] | 0.0437
